What follows are molecules tested against T1, mGlyT-1b (Mus musculus, UniProt P28571) (assay: Glycine Uptake Inhibition Assay (mGlyT-1b)). Settings: IC50 data.
T1 construct: host or cells: Flp-in-CHO
T1 sequence (P28571 1-651 isoform P28571-2): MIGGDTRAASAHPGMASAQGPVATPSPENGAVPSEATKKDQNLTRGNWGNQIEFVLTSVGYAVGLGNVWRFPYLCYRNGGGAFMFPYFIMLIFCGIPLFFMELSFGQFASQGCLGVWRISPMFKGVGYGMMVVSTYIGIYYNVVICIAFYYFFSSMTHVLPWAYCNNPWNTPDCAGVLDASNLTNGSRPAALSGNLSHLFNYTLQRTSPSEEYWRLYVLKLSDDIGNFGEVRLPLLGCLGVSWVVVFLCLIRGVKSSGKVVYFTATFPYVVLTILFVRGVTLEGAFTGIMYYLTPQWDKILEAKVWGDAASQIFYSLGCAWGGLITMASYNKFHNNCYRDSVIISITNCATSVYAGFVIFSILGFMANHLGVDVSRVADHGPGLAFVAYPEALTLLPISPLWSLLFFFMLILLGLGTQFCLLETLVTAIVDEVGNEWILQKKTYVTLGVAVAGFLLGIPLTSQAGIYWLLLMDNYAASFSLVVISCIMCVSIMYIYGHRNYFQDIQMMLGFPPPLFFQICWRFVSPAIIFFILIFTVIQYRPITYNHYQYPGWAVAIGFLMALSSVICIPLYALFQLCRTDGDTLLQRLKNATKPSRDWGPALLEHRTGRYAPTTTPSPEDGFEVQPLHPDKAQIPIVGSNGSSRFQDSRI
Assay type: cell-based

| Structure (SMILES) | IC50 [nM] |
| --- | --- |
| O=C(NC1CCCC1N1CCCC1)c1c(C2CC2)cc(C(F)(F)F)cc1C(F)(F)F (single isomer, unassigned; (+)) [Example 139, (+)-2-Cyclopropyl-N-((1R,2S or 1S,2R)-2-pyrrolidin-1-yl-cyclopentyl)-4,6-bis-trifluoromethyl-benzamide] | 32.5 |
| CCc1cccc(C2CC2)c1C(=O)N[C@H]1CCC[C@H]1N1CCCC1 (racemic) [Example 98, cis-2-Cyclopropyl-6-ethyl-N-(2-pyrrolidin-1-yl-cyclopentyl)-benzamide] | 80.1 |
| CCc1cc(C(F)(F)F)cc(C(F)(F)F)c1C(=O)N[C@H]1CCC[C@H]1N1CCCC1 (relative stereo) [Example 137, 2-Ethyl-N-((cis)-2-pyrrolidin-1-yl-cyclopentyl)-4,6-bis-trifluoromethyl-benzamide] | 46.2 |
| CSc1cc(C(F)(F)F)cc(C(F)(F)F)c1C(=O)N[C@@H]1CCC[C@@H]1N1CCCC1 (single isomer, unassigned) [Example 118, (+)-cis-2-Methylsulfanyl-N-(2-pyrrolidin-1-yl-cyclopentyl)-4,6-bis-trifluoromethyl-benzamide] | 60 |
| O=C(N[C@H]1CCC[C@H]1N1CCCC1)c1c(F)cc(C(F)(F)F)cc1C(F)(F)F (relative stereo) [Example 105, cis-2-Fluoro-N-(2-pyrrolidin-1-yl-cyclopentyl)-4,6-bis-trifluoromethyl-benzamide] | 75.1 |
| CSc1cc(C(F)(F)F)ccc1C(=O)N[C@@H]1CCC[C@@H]1N1CCCC1 (single isomer, unassigned) [Example 85, (−)-2-Methylsulfanyl-N-(2-pyrrolidin-1-yl-cyclopentyl)-4-trifluoromethyl-benzamide] | 60.4 |
| CCc1cccc(C2CC2)c1C(=O)N[C@@H]1CCC[C@@H]1N1CCCC1 (single isomer, unassigned) [Example 120, (−)-cis-2-Cyclopropyl-6-ethyl-N-(2-pyrrolidin-1-yl-cyclopentyl)-benzamide] | 55.2 |
| CCc1cc(C(F)(F)F)cc(OC)c1C(=O)N[C@H]1CCC[C@H]1N1CCCC1 (relative stereo) [Example 140, 2-Ethyl-6-methoxy-N-((cis)-2-pyrrolidin-1-yl-cyclopentyl)-4-trifluoromethyl-benzamide] | 55.4 |
| O=C(N[C@@H]1CCC[C@@H]1N1CCCC1)c1c(F)cc(C(F)(F)F)cc1C(F)(F)F (single isomer, unassigned) [Example 126, (−)-cis-2-Fluoro-N-(2-pyrrolidin-1-yl-cyclopentyl)-4,6-bis-trifluoromethyl-benzamide] | 74 |
| COc1cc(C(F)(F)F)cc(OC(F)F)c1C(=O)N[C@H]1CCC[C@H]1N1CCCC1 (relative stereo) [Example 133, 2-Difluoromethoxy-6-methoxy-N-((cis)-2-pyrrolidin-1-yl-cyclopentyl)-4-trifluoromethyl-benzamide] | 90.8 |

Same assay, conditions: [3H]-glycine uptake, Flp-in-CHO cells transfected with mGlyT-1b cDNA, 20 min preincubation at 22° C.; read-out: IC50 data

| Structure (SMILES) | IC50 [nM] |
| --- | --- |
| CSc1cc(C(F)(F)F)cc(C(F)(F)F)c1C(=O)N[C@H]1CCC[C@H]1NC1CCCC1 (racemic) [Example 134, N-((cis)-2-Cyclopentylamino-cyclopentyl)-2-methylsulfanyl-4,6-bis-trifluoromethyl-benzamide] | 95.7 |

Same assay, conditions: read-out: IC50 data

| Structure (SMILES) | IC50 [nM] |
| --- | --- |
| COc1cc(C(F)(F)F)cc(SC)c1C(=O)N[C@@H]1CCC[C@@H]1NC1CCC1 (racemic) [Example 61, N-((1RS,2SR)-2-Cyclobutylamino-cyclopentyl)-2-methoxy-6-methylsulfanyl-4-trifluoromethyl-benzamide] | 65.9 |
| CCc1cc(C(F)(F)F)ccc1C(=O)N[C@H]1CCC[C@H]1NC1CCCC1 (single isomer, unassigned) [Example 92, (+)-N-(2-Cyclopentylamino-cyclopentyl)-2-ethyl-4-trifluoromethyl-benzamide] | 95.4 |
| CCc1cc(C(F)(F)F)ccc1C(=O)N[C@H]1CCC[C@H]1NC1CCCC1 (racemic) [Example 89, cis-N-(2-Cyclopentylamino-cyclopentyl)-2-ethyl-4-trifluoromethyl-benzamide] | 79.4 |

From patent publication US8404673B2, “Carbocyclic GlyT1 receptor antagonists” (Hoffmann-La Roche Inc., priority 2009, dated 2013)
